Laboratory results published in PubChem BioAssay (NCI).
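Exposure lasted 48 hours, with cells grown in 96-well plates and compounds tested at five concentrations. Here, GI50 denotes the concentration required for 50% inhibition of growth. At the TGI there is no net growth.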

What was measured:
Assay in all cases: NCI anticancer screen, dose series, 48 h
786-0 renal = tested on: 786-0 renal
A498 renal = tested on: A498 renal
A549 NSCLC = tested on: A549 NSCLC
ACHN renal = tested on: ACHN renal
CCRF-CEM leukemia = tested on: CCRF-CEM leukemia
COLO 205 colon = tested on: COLO 205 colon
DLD-1 colon = tested on: DLD-1 colon
DMS 114 small cell lung = tested on: DMS 114 small cell lung
DMS 273 small cell lung = tested on: DMS 273 small cell lung
EKVX NSCLC = tested on: EKVX NSCLC
HCC-2998 colon = tested on: HCC-2998 colon
HCT-116 colon = tested on: HCT-116 colon
HCT-15 colon = tested on: HCT-15 colon
HL-60(TB) leukemia = tested on: HL-60(TB) leukemia
HOP-18 NSCLC = tested on: HOP-18 NSCLC
HOP-62 NSCLC = tested on: HOP-62 NSCLC
HOP-92 NSCLC = tested on: HOP-92 NSCLC
HT29 colon = tested on: HT29 colon
IGROV1 ovarian = tested on: IGROV1 ovarian
K-562 leukemia = tested on: K-562 leukemia
KM12 colon = tested on: KM12 colon
KM20L2 colon = tested on: KM20L2 colon
LOX IMVI melanoma = tested on: LOX IMVI melanoma
LXFL 529 NSCLC = tested on: LXFL 529 NSCLC
M14 melanoma = tested on: M14 melanoma
M19-MEL melanoma = tested on: M19-MEL melanoma
MALME-3M melanoma = tested on: MALME-3M melanoma
MOLT-4 leukemia = tested on: MOLT-4 leukemia
NCI-H226 lung = tested on: NCI-H226 lung
NCI-H23 lung = tested on: NCI-H23 lung
NCI-H460 lung = tested on: NCI-H460 lung
NCI-H522 lung = tested on: NCI-H522 lung
OVCAR-3 ovarian = tested on: OVCAR-3 ovarian
OVCAR-4 ovarian = tested on: OVCAR-4 ovarian
OVCAR-5 ovarian = tested on: OVCAR-5 ovarian
OVCAR-8 ovarian = tested on: OVCAR-8 ovarian
RXF 393 renal = tested on: RXF 393 renal
SF-268 CNS = tested on: SF-268 CNS
SF-295 CNS = tested on: SF-295 CNS
SF-539 CNS = tested on: SF-539 CNS
SK-MEL-2 melanoma = tested on: SK-MEL-2 melanoma
SK-MEL-28 melanoma = tested on: SK-MEL-28 melanoma
SK-MEL-5 melanoma = tested on: SK-MEL-5 melanoma
SK-OV-3 ovarian = tested on: SK-OV-3 ovarian
SN12C renal = tested on: SN12C renal
SNB-19 CNS = tested on: SNB-19 CNS
SNB-75 CNS = tested on: SNB-75 CNS
SNB-78 CNS = tested on: SNB-78 CNS
SR leukemia = tested on: SR leukemia
SW-620 colon = tested on: SW-620 colon
TK-10 renal = tested on: TK-10 renal
U251 CNS = tested on: U251 CNS
UACC-257 melanoma = tested on: UACC-257 melanoma
UO-31 renal = tested on: UO-31 renal
XF 498 CNS = tested on: XF 498 CNS
CAKI-1 renal = tested on: CAKI-1 renal
RPMI-8226 leukemia = tested on: RPMI-8226 leukemia
UACC-62 melanoma = tested on: UACC-62 melanoma

With COC(=O)/C=C/C1C2C3(CCC(C)C12C)OCCS3 (configuration not stated) the TGI (786-0 renal) was > 100 µM, the TGI (A498 renal) was > 100 µM and the TGI (A549 NSCLC) was > 100 µM. For the same compound, the TGI (ACHN renal) was > 100 µM, the TGI (CCRF-CEM leukemia) was > 100 µM and the TGI (COLO 205 colon) was > 100 µM. For the same compound, the TGI (DLD-1 colon) was > 100 µM, the TGI (DMS 114 small cell lung) was > 100 µM and the TGI (DMS 273 small cell lung) was > 100 µM. For the same compound, the TGI (EKVX NSCLC) was > 100 µM, the TGI (HCC-2998 colon) was > 100 µM and the TGI (HCT-116 colon) was > 100 µM. For the same compound, the TGI (HCT-15 colon) was > 100 µM, the TGI (HL-60(TB) leukemia) was > 100 µM and the TGI (HOP-18 NSCLC) was > 100 µM. The TGI (HOP-62 NSCLC) was > 100 µM, the TGI (HOP-92 NSCLC) was > 100 µM and the TGI (HT29 colon) was > 100 µM. The TGI (IGROV1 ovarian) was > 100 µM, the TGI (K-562 leukemia) was > 100 µM and the TGI (KM12 colon) was > 100 µM. The TGI (KM20L2 colon) was > 100 µM, the TGI (LOX IMVI melanoma) was > 100 µM and the TGI (LXFL 529 NSCLC) was > 100 µM. For the same compound, the TGI (M14 melanoma) was > 100 µM, the TGI (M19-MEL melanoma) was > 100 µM and the TGI (MALME-3M melanoma) was > 100 µM. The TGI (MOLT-4 leukemia) was > 100 µM, the TGI (NCI-H226 lung) was > 100 µM and the TGI (NCI-H23 lung) was > 100 µM. The TGI (NCI-H460 lung) was > 100 µM, the TGI (NCI-H522 lung) was > 100 µM and the TGI (OVCAR-3 ovarian) was > 100 µM. The TGI (OVCAR-4 ovarian) was > 100 µM, the TGI (OVCAR-5 ovarian) was > 100 µM and the TGI (OVCAR-8 ovarian) was > 100 µM. For the same compound, the TGI (RXF 393 renal) was > 100 µM, the TGI (SF-268 CNS) was > 100 µM and the TGI (SF-295 CNS) was > 100 µM. The TGI (SF-539 CNS) was > 100 µM, the TGI (SK-MEL-2 melanoma) was > 100 µM and the TGI (SK-MEL-28 melanoma) was > 100 µM. The TGI (SK-MEL-5 melanoma) was > 100 µM, the TGI (SK-OV-3 ovarian) was > 100 µM and the TGI (SN12C renal) was > 100 µM. The TGI (SNB-19 CNS) was > 100 µM, the TGI (SNB-75 CNS) was > 100 µM and the TGI (SNB-78 CNS) was > 100 µM. For the same compound, the TGI (SR leukemia) was > 100 µM, the TGI (SW-620 colon) was > 100 µM and the TGI (TK-10 renal) was > 100 µM. For the same compound, the TGI (U251 CNS) was > 100 µM, the TGI (UACC-257 melanoma) was > 100 µM and the TGI (UO-31 renal) was > 100 µM. The TGI (XF 498 CNS) was > 100 µM.
COc1cccc(/C=N/[N-]C(=O)c2ccncc2)c1[O-].[Ni+2].[OH3+] was tested, and the GI50 (786-0 renal) was > 100 µM, the TGI (786-0 renal) was > 100 µM and the GI50 (A498 renal) was > 100 µM. The TGI (A498 renal) was > 100 µM, the GI50 (A549 NSCLC) was > 100 µM and the TGI (A549 NSCLC) was > 100 µM. The GI50 (ACHN renal) was > 100 µM, the TGI (ACHN renal) was > 100 µM and the GI50 (CAKI-1 renal) was > 100 µM. For the same compound, the TGI (CAKI-1 renal) was > 100 µM, the GI50 (CCRF-CEM leukemia) was > 100 µM and the TGI (CCRF-CEM leukemia) was > 100 µM. For the same compound, the GI50 (COLO 205 colon) was > 100 µM, the TGI (COLO 205 colon) was > 100 µM and the GI50 (DLD-1 colon) was > 100 µM. The TGI (DLD-1 colon) was > 100 µM, the GI50 (DMS 114 small cell lung) was > 100 µM and the TGI (DMS 114 small cell lung) was > 100 µM. For the same compound, the GI50 (DMS 273 small cell lung) was > 100 µM, the TGI (DMS 273 small cell lung) was > 100 µM and the GI50 (EKVX NSCLC) was > 100 µM. For the same compound, the TGI (EKVX NSCLC) was > 100 µM, the GI50 (HCC-2998 colon) was > 100 µM and the TGI (HCC-2998 colon) was > 100 µM. For the same compound, the GI50 (HCT-116 colon) was > 100 µM, the TGI (HCT-116 colon) was > 100 µM and the GI50 (HCT-15 colon) was > 100 µM. The TGI (HCT-15 colon) was > 100 µM, the GI50 (HL-60(TB) leukemia) was > 100 µM and the TGI (HL-60(TB) leukemia) was > 100 µM. The GI50 (HOP-18 NSCLC) was > 100 µM, the TGI (HOP-18 NSCLC) was > 100 µM and the GI50 (HOP-62 NSCLC) was > 100 µM. For the same compound, the TGI (HOP-62 NSCLC) was > 100 µM, the GI50 (HOP-92 NSCLC) was > 100 µM and the TGI (HOP-92 NSCLC) was > 100 µM. The GI50 (HT29 colon) was > 100 µM, the TGI (HT29 colon) was > 100 µM and the GI50 (IGROV1 ovarian) was > 100 µM. The TGI (IGROV1 ovarian) was > 100 µM, the GI50 (K-562 leukemia) was > 100 µM and the TGI (K-562 leukemia) was > 100 µM. For the same compound, the GI50 (KM12 colon) was > 100 µM, the TGI (KM12 colon) was > 100 µM and the GI50 (KM20L2 colon) was > 100 µM. For the same compound, the TGI (KM20L2 colon) was > 100 µM, the GI50 (LOX IMVI melanoma) was > 100 µM and the TGI (LOX IMVI melanoma) was > 100 µM. For the same compound, the GI50 (LXFL 529 NSCLC) was > 100 µM, the TGI (LXFL 529 NSCLC) was > 100 µM and the GI50 (M14 melanoma) was > 100 µM. The TGI (M14 melanoma) was > 100 µM, the GI50 (M19-MEL melanoma) was > 100 µM and the TGI (M19-MEL melanoma) was > 100 µM. The GI50 (MALME-3M melanoma) was > 100 µM, the TGI (MALME-3M melanoma) was > 100 µM and the GI50 (MOLT-4 leukemia) was > 100 µM. The TGI (MOLT-4 leukemia) was > 100 µM, the GI50 (NCI-H226 lung) was > 100 µM and the TGI (NCI-H226 lung) was > 100 µM. For the same compound, the GI50 (NCI-H23 lung) was > 100 µM, the TGI (NCI-H23 lung) was > 100 µM and the GI50 (NCI-H460 lung) was > 100 µM. For the same compound, the TGI (NCI-H460 lung) was > 100 µM, the GI50 (OVCAR-3 ovarian) was > 100 µM and the TGI (OVCAR-3 ovarian) was > 100 µM. The GI50 (OVCAR-4 ovarian) was > 100 µM, the TGI (OVCAR-4 ovarian) was > 100 µM and the GI50 (OVCAR-5 ovarian) was > 100 µM. For the same compound, the TGI (OVCAR-5 ovarian) was > 100 µM, the GI50 (OVCAR-8 ovarian) was > 100 µM and the TGI (OVCAR-8 ovarian) was > 100 µM. The GI50 (RPMI-8226 leukemia) was > 100 µM, the TGI (RPMI-8226 leukemia) was > 100 µM and the GI50 (SF-268 CNS) was > 100 µM. For the same compound, the TGI (SF-268 CNS) was > 100 µM, the GI50 (SF-295 CNS) was > 100 µM and the TGI (SF-295 CNS) was > 100 µM. The GI50 (SF-539 CNS) was > 100 µM, the TGI (SF-539 CNS) was > 100 µM and the GI50 (SK-MEL-2 melanoma) was > 100 µM. The TGI (SK-MEL-2 melanoma) was > 100 µM, the GI50 (SK-MEL-28 melanoma) was > 100 µM and the TGI (SK-MEL-28 melanoma) was > 100 µM. For the same compound, the GI50 (SK-MEL-5 melanoma) was > 100 µM, the TGI (SK-MEL-5 melanoma) was > 100 µM and the GI50 (SK-OV-3 ovarian) was > 100 µM. For the same compound, the TGI (SK-OV-3 ovarian) was > 100 µM, the GI50 (SN12C renal) was > 100 µM and the TGI (SN12C renal) was > 100 µM. For the same compound, the GI50 (SNB-19 CNS) was > 100 µM, the TGI (SNB-19 CNS) was > 100 µM and the GI50 (SNB-75 CNS) was > 100 µM. The TGI (SNB-75 CNS) was > 100 µM, the GI50 (SNB-78 CNS) was > 100 µM and the TGI (SNB-78 CNS) was > 100 µM. For the same compound, the GI50 (SR leukemia) was > 100 µM, the TGI (SR leukemia) was > 100 µM and the GI50 (SW-620 colon) was > 100 µM. The TGI (SW-620 colon) was > 100 µM, the GI50 (TK-10 renal) was > 100 µM and the TGI (TK-10 renal) was > 100 µM. For the same compound, the GI50 (U251 CNS) was > 100 µM, the TGI (U251 CNS) was > 100 µM and the GI50 (UACC-257 melanoma) was > 100 µM. The TGI (UACC-257 melanoma) was > 100 µM, the GI50 (UACC-62 melanoma) was > 100 µM and the TGI (UACC-62 melanoma) was > 100 µM. For the same compound, the GI50 (UO-31 renal) was > 100 µM, the TGI (UO-31 renal) was > 100 µM and the GI50 (XF 498 CNS) was > 100 µM. For the same compound, the TGI (XF 498 CNS) was > 100 µM.
